{"source": "patent US20160015813A1", "about": "“NOVEL AND SYNERGISTIC COMPOSITION OF LECITHIN AND LYSOLECITHIN FOR IMPROVING BIOAVAILABILITY AND SOLUBILITY OF HYDROPHOBIC COMPOUNDS AND EXTRACTS” (priority 2014, published 2016)", "assay": "Oral bioavailability study of berberine formulation versus unformulated berberine (berberine concentration in serum)", "format": "in vivo, Sprague Dawley rats", "settings": "Sprague Dawley, rat", "description": "The study was conducted to evaluate the bioavailability of orally administered curcuminoid compositions (Table 1 and Example. 2), formulated using a synergistic combination of lecithin and lysolecithin in Sprague Dawley rats. Compositions formulated with lecithin or lysolecithin alone were also tested along with Meriva (Batch No FG-6558). These formulations were prepared using similar procedure described in examples 2 and 3. Total of twelve (12) animals were divided into four groups having three animals in each group. The test substances were administered orally to the animals via oral gavage once at 125 mg/Kg body weight active ingredient equivalent to Active ingredient. Pre-dose or 0th time blood samples were collected from all the animals before dosing the test substance, followed by blood sampling at 0.15, 0.5, 1, 1.5, 2, 4, 8, 12 and 24 hrs after dosing the test substance by sinus orbital plexus under anesthesia. Serum was separated from blood by centrifugation and was subjected to LC-MS/MS analysis for estimation of curcumin concentration in serum samples.\nThe similar protocol was used for the evaluation of oral bio-availability of berberine formulation (Example. 3) in comparison with the unformulated berberine and for estimation of berberine concentration in serum samples. The berberine compound and its formulations were supplemented to the animals at a dose equivalent to 100 mg/kg bodyweight of active Berberine.", "note": "Like-named read-outs stand apart in the source and are kept apart here.", "data": [{"smiles": "COc1ccc2cc3[n+](cc2c1OC)CCc1cc2c(cc1-3)OCO2", "note": "[LI32001, Berberine]", "values": [{"measurement": "AUC(0-t)", "setting": "serum, 100 mg/kg bodyweight of active Berberine, single oral administration, read-out: Oral exposures (AUClast)", "value": "23.7 ± 7.99", "unit": "ng·h/mL"}, {"measurement": "Cmax", "setting": "rats, single oral dose equivalent to 100 mg/kg BW berberine, berberine in serum, 6 animals", "value": "4.2 ± 1.85", "unit": "ng/mL"}, {"measurement": "AUC(0-t)", "setting": "rats, single oral dose equivalent to 100 mg/kg BW berberine, berberine in serum, 6 animals, read-out: AUClast (0-24 h)", "value": "23.7 ± 7.99", "unit": "ng·h/mL"}]}]}
